# From article PMC9545868, “Structure‐Based Demystification of Radical Catalysis by a Coenzyme B12 Dependent Enzyme—Crystallographic Study of Glutamate Mutase with Cofactor Homologues” (Angewandte Chemie (International Ed. in English), 2022)
# Biological target: T1, glutamate mutase (GM) (Clostridium cochlearium, UniProt P80077+P80078)
# T1 construct: gene glmE; hetero-tetramer of two epsilon and two sigma subunits; construct details only in the supplement
# T1 sequence (P80077 1-483): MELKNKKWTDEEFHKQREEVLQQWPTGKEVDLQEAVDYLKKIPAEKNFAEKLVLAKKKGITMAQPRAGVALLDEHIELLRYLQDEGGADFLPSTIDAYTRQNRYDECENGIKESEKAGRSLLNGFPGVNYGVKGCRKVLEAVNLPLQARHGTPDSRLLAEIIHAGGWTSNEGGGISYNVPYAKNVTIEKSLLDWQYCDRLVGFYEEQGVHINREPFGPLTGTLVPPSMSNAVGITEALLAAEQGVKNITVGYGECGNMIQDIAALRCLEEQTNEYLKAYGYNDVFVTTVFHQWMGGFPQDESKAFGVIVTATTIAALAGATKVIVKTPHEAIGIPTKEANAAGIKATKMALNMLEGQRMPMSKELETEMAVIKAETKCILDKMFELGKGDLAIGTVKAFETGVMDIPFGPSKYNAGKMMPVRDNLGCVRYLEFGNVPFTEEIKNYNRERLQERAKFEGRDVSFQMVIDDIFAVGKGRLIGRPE
# T1 sequence (P80078 1-137): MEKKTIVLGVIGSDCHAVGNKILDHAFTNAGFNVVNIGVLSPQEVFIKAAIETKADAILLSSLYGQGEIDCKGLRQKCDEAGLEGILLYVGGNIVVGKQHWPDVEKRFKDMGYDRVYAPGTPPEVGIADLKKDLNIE
# Assay: X-ray crystal structures, […] and […] Å
# Assay type: binding
# Details: pseudo-substrate in the substrate site of the epsilon subunit (arginine claw R66, R100, R149); with AdoMeCbl or AdoEtCbl bound
compound,measurement,value
"O=C(O)[C@@H](O)[C@H](O)C(=O)O [(S,S)‐tartrate]","X-ray crystal structures, 1.8 and 2.1 Å","strong polar binding interactions with the carboxylate groups of an (S,S)‐tartrate ion"
